Assay results reported in patent publication US20030109563A1, “Nematicidal trifluorobutenes” (priority 2000, published 2003).

Each compound was assayed on Meloidogyne incognita (assay: Test against Meloidogyne spp. (soil pot test)). Details: 672 h; 10 ppm in soil contaminated by Meloidogyne incognita; tomato (Kurihara), greenhouse 4 weeks; from root knot index; read-out: controlling effect.
Assay type: in vivo
Protocol: Test Against Meloidogyne spp. (Soil Pot Test)
Preparation of Test Agent:
1 Part of the active compound is impregnated to 99 parts of pumice to make fine granules.
A compound of the formula (I) was added to the soil contaminated by Meloidogyne incognita so that the chemical concentration would be 10 ppm and homogeneously mixed by stirring. A pot ( 1/5000 are) was filled with the soil. About 20 seeds of tomato (variety: Kurihara) were sown per pot. After cultivation in a greenhouse for 4 weeks, they were carefully pulled out not to damage the roots and the root knot index and the controlling effect were determined as follows.
1: A few knots were formed
2: Knots were formed to a medium extent
3: Knots were formed to an intense extent
4: Knots were formed to the most intense extent (corresponds to non-treatment). [formula]
Evaluation of the ability of the tested compounds to control the nematodes was done according to the values obtained for the controlling effect and with the following standards. […]
a: Controlling effect 100-71% b: Controlling effect 70-50% c: Controlling effect less than 50%

Compound | pest or weed control at 10 ppm
FC(F)=C(F)CCSc1ncco1 [Compound 1, 2-(3,4,4-trifluoro-3-butenylthio)oxazole] | 71 to 100%
[O-][S+](CCC(F)=C(F)F)c1ncco1 (centres unmarked) [Compound 2, 2-(3,4,4-trifluoro-3-butenylsulfinyl)oxazole] | 71 to 100%
O=S(=O)(CCC(F)=C(F)F)c1ncco1 [Compound 3, 2-(3,4,4-trifluoro-3-butenylsulfonyl)oxazole] | 71 to 100%
FC(F)=C(F)CCSc1ncc(Cl)o1 [Compound 4, 5-chloro-2-(3,4,4-trifluoro-3-butenylthio)oxazole] | 71 to 100%
FC(F)=C(F)CCSc1nc(CBr)c(Br)o1 [Compound 39, 5-bromo-4-bromomethyl-2-(3,4,4-trifluoro-3-butenylthio)oxazole] | 71 to 100%
COCc1cnc(SCCC(F)=C(F)F)o1 [Compound 46, 5-methoxymethyl-2-(3,4,4-trifluoro-3-butenylthio)oxazole] | 71 to 100%
FC(F)=C(F)CCSc1nc(Cl)co1 [Compound 52, 4-chloro-2-(3,4,4-trifluoro-3-butenylthio)oxazole] | 71 to 100%
OCc1coc(SCCC(F)=C(F)F)n1 [Compound 75, 4-hydroxymethyl-2-(3,4,4-trifluoro-3-butenylthio)oxazole] | 71 to 100%
COCc1coc(SCCC(F)=C(F)F)n1 [Compound 78, 4-methoxymethyl-2-(3,4,4-trifluoro-3-butenylthio)oxazole] | 71 to 100%
CSCc1coc(SCCC(F)=C(F)F)n1 [Compound 86, 4-methylthiomethyl-2-(3,4,4-trifluoro-3-butenylthio)oxazole] | 71 to 100%
CS(=O)(=O)Oc1coc(SCCC(F)=C(F)F)n1 [Compound 127, 4-methylsulfonyloxy-2-(3,4,4-trifluoro-3-butenylthio)oxazole] | 71 to 100%
